The values that follow come from patent US10280169B2, “Biaryl bruton's tyrosine kinase inhibitors” (BIOGEN MA INC., priority 2013, dated 2019).

Structures are written as SMILES.

Experiment [1] has as its target T1, BTK (Homo sapiens, UniProt Q06187).
T1 construct: purchased Upstate 14-552
As to the kind of experiment: In vitro BTK kinase assay: BTK-POLYGAT-LS assay. The conditions noted are these: 10 uM ATP, read-out: IC50 (10 uMATP). It is filed as biochemical.

Experiment [2] concerns the target T2, pBTK (Homo sapiens, UniProt Q06187).
T2 construct: Heparinized venous blood was purchased from Bioreclamation, Inc. or SeraCare Life Sciences; tissue Bioreclamation, Inc. or SeraCare Life Sciences; host or cells: heparinized venous whole blood
As to the kind of experiment: In vitro PD assay in whole blood (pBTK assay). In kind it is cell-based. The conditions noted are these: 30 min at 37° C. On the procedure: Heparinized venous blood was purchased from Bioreclamation, Inc. or SeraCare Life Sciences and shipped overnight. Whole blood was aliquoted into 96-well plate and “spiked” with serial dilutions of test compound in DMSO or with DMSO without drug. The final concentration of DMSO in all wells was 0.1%. The plate was incubated at 37° C. for 30 min. Lysis buffer containing protease and phosphatase inhibitors was added to the drug-containing samples and one of the DMSO-only samples (+PPi, high control), while lysis buffer containing protease inhibitors was added to the other DMSO-only samples (−PPi, low control). All of the lysed whole blood samples were subjected to the total BTK capture and phosphotyrosine detection method described in Example 30. ECL values were graphed in Prism and a best-fit curve with restrictions on the maximum and minimum defined by the +PPi high and −PPi low controls was used to estimate the test compound concentration that results in 50% inhibition of ECL signal by interpolation.
In some instances where a compound tested has activity “D”, other structurally similar compounds beyond the measurable limits of the assay are not included in Table 2.

T2 sequence (Q06187 whole entry): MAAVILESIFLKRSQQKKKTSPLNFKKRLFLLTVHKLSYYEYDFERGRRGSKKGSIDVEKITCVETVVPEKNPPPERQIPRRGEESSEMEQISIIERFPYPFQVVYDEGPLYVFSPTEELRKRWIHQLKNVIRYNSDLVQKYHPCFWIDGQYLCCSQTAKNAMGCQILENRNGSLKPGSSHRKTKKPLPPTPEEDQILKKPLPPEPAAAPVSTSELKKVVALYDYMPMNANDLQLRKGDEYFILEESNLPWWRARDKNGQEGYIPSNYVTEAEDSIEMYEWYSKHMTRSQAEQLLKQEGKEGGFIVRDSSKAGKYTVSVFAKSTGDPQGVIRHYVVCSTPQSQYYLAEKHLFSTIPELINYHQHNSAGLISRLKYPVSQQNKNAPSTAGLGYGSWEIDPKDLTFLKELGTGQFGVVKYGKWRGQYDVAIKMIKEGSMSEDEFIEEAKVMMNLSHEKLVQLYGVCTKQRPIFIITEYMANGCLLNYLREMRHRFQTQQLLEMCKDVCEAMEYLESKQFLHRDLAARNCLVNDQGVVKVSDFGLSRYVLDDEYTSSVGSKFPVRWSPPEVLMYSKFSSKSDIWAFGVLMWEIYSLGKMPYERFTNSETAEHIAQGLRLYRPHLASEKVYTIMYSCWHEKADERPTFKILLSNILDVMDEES
T1 sequence (Q06187 whole entry): as above

Consider `CCn1cc(-c2cc3ncnc(-c4ccc(CNC(=O)c5ncc(C(C)(C)C)s5)c(C)c4)c3[nH]2)cn1` [Example I-40, 5-(tert-butyl)-N-(4-(6-(1-ethyl-1H-pyrazol-4-yl)-5H-pyrrolo[3,2-d]pyrimidin-4-yl)-2-methylbenzyl)thiazole-2-carboxamide], for which the results for the IC50 in experiment [1] and in experiment [2] were less than 10 nM and less than 500 nM, respectively.
Taken in the same sequence, the figures for `Cc1cc(-c2ncnc3cc(-c4cn[nH]c4)[nH]c23)ccc1CNC(=O)c1ncc(C(C)(C)C)s1` [Example I-41, N-(4-(6-(1H-pyrazol-4-yl)-5H-pyrrolo[3,2-d]pyrimidin-4-yl)-2-methylbenzyl)-5-(tert-butyl)thiazole-2-carboxamide] were less than 10 nM and 500 to 1500 nM.
Taken in the same sequence, the figures for `Cc1cc(-c2ncnc3cc(-c4cnn(C)c4)[nH]c23)ccc1CNC(=O)c1cc2c(s1)CCOC2` [Example I-42, N-(2-methyl-4-(6-(1-methyl-1H-pyrazol-4-yl)-5H-pyrrolo[3,2-d]pyrimidin-4-yl)benzyl)-6,7-dihydro-4H-thieno[3,2-c]pyran-2-carboxamide] were less than 10 nM and less than 500 nM.
As for `Cc1cc(-c2ncnc3cc(-c4cnn(C)c4)[nH]c23)ccc1CNC(=O)N1CC(OC(C)C)C1` [Example I-43, 3-isopropoxy-N-(2-methyl-4-(6-(1-methyl-1H-pyrazol-4-yl)-5H-pyrrolo[3,2-d]pyrimidin-4-yl)benzyl)azetidine-1-carboxamide], the IC50 in experiment [1] was less than 10 nM; in experiment [2], 500 to 1500 nM.
For `Cc1cc(-c2ncnc3cc(-c4cnn(C)c4)[nH]c23)ccc1C(CO)NC(=O)c1cnc(C(C)(C)C)s1` (centres unmarked) [Example I-44, 2-(tert-butyl)-N-(2-hydroxy-1-(2-methyl-4-(6-(1-methyl-1H-pyrazol-4-yl)-5H-pyrrolo[3,2-d]pyrimidin-4-yl)phenyl)ethyl)thiazole-5-carboxamide], in that order: less than 10 nM and 500 to 1500 nM.
Taken in the same sequence, the figures for `Cc1cc(-c2ncnc3cc(-c4cnn(C)c4)[nH]c23)ccc1C(CO)NC(=O)c1cc2c(s1)CCOC2` (centres unmarked) [Example I-45, N-(2-hydroxy-1-(2-methyl-4-(6-(1-methyl-1H-pyrazol-4-yl)-5H-pyrrolo[3,2-d]pyrimidin-4-yl)phenyl)ethyl)-6,7-dihydro-4H-thieno[3,2-c]pyran-2-carboxamide] were 10 to 99 nM and 1500 to 10000 nM.
Taken in the same sequence, the figures for `Cc1cc(-c2ncnc3cc(-c4cnn(C)c4)[nH]c23)ccc1C(C)NC(=O)c1cnc(C(C)(C)C)s1` (centres unmarked) [Example I-46, 2-(tert-butyl)-N-(1-(2-methyl-4-(6-(1-methyl-1H-pyrazol-4-yl)-5H-pyrrolo[3,2-d]pyrimidin-4-yl)phenyl)ethyl)thiazole-5-carboxamide] were less than 10 nM and less than 500 nM.
In the case of `Cc1cc(-c2ncnc3nc(N4CCN(C)CC4)[nH]c23)ccc1CNC(=O)c1cnc(C(C)(C)C)s1` [Example I-47, 2-(tert-butyl)-N-(2-methyl-4-(8-(4-methylpiperazin-1-yl)-7H-purin-6-yl)benzyl)thiazole-5-carboxamide], the IC50 is less than 10 nM in experiment [1] and less than 500 nM in experiment [2].
For the molecule `Cc1cc(-c2ncnc3nc(N4CCOCC4)[nH]c23)ccc1CNC(=O)c1cnc(C(C)(C)C)s1` [Example I-48, 2-(tert-butyl)-N-(2-methyl-4-(8-morpholino-7H-purin-6-yl)benzyl)thiazole-5-carboxamide], the IC50 in experiment [1] was less than 10 nM; in experiment [2], less than 500 nM.
Taken in the same sequence, the figures for `Cc1cc(-c2ncnc3nc(N4CCC(N(C)C)CC4)[nH]c23)ccc1CNC(=O)c1cnc(C(C)(C)C)s1` [Example I-49, 2-(tert-butyl)-N-(4-(8-(4-(dimethylamino)piperidin-1-yl)-7H-purin-6-yl)-2-methylbenzyl)thiazole-5-carboxamide] were less than 10 nM and 500 to 1500 nM.
For `Cc1cc(-c2ncnc3nc(N4CCC(C(=O)O)CC4)[nH]c23)ccc1CNC(=O)c1cnc(C(C)(C)C)s1` [Example I-52, 1-(6-(4-((2-(tert-butyl)thiazole-5-carboxamido)methyl)-3-methylphenyl)-7H-purin-8-yl)piperidine-4-carboxylic acid], in that order: less than 10 nM and less than 500 nM.
Taken in the same sequence, the figures for `Cc1cc(-c2ncnc3[nH]ccc23)ccc1C(C)NC(=O)c1cc2c(s1)CCCC2` (centres unmarked) [Example I-78, N-(1-(2-methyl-4-(7H-pyrrolo[2,3-d]pyrimidin-4-yl)phenyl)ethyl)-4,5,6,7-tetrahydrobenzo[b]thiophene-2-carboxamide] were less than 10 nM and 1500 to 10000 nM.
With `Cc1cc(-c2ncnc3[nH]ncc23)ccc1CNC(=O)c1cc2c(s1)CCCC2` [Example I-85, N-(2-methyl-4-(1H-pyrazolo[3,4-d]pyrimidin-4-yl)benzyl)-4,5,6,7-tetrahydrobenzo[b]thiophene-2-carboxamide], the results for the IC50 in experiment [1] and in experiment [2] were less than 10 nM and 1500 to 10000 nM, respectively.
For `O=C(N[C@H]1CCCc2cc(-c3ncnc4[nH]ncc34)ccc21)c1cc2c(s1)CCCC2` [Example I-87, (S)—N-(6-(1H-Pyrazolo[3,4-d]pyrimidin-4-yl)-1,2,3,4-tetrahydronaphthalen-1-yl)-4,5,6,7-tetrahydrobenzo[b]thiophene-2-carboxamide], in that order: less than 10 nM and 1500 to 10000 nM.
For `O=C(N[C@H]1CCCc2cc(-c3ncnc4[nH]ccc34)ccc21)c1cc2c(s1)CCCC2` [Example I-89, (S)—N-(6-(7H-Pyrrolo[2,3-d]pyrimidin-4-yl)-1,2,3,4-tetrahydronaphthalen-1-yl)-4,5,6,7-tetrahydrobenzo[b]thiophene-2-carboxamide], in that order: less than 10 nM and 1500 to 10000 nM.
As to `CC(C)(C)c1csc(C(=O)NC2CCCc3cc(-c4ncnc5[nH]ncc45)ccc32)n1` (centres unmarked) [Example I-98, N-(6-(1H-pyrazolo[3,4-d]pyrimidin-4-yl)-1,2,3,4-tetrahydronaphthalen-1-yl)-4-(tert-butyl) thiazole-2-carboxamide], the IC50 in experiment [1] is less than 10 nM; in experiment [2] it was greater than 10000 nM.
Taken in the same sequence, the figures for `Cc1cc(-c2ncnc3[nH]c(-c4cnn(C)c4)cc23)ccc1C(C)NC(=O)c1cnc(C(C)(C)C)s1` (centres unmarked) [Example I-112, 2-(tert-butyl)-N-(1-(2-methyl-4-(6-(1-methyl-1H-pyrazol-4-yl)-7H-pyrrolo[2,3-d]pyrimidin-4-yl)phenyl)ethyl)thiazole-5-carboxamide] were less than 10 nM and less than 500 nM.
Taken in the same sequence, the figures for `Cc1cc(-c2ncnc3[nH]c(-c4cnn(C)c4)cc23)ccc1C(C)NC(=O)c1cc2c(s1)CCOC2` (centres unmarked) [Example I-113, N-(1-(2-methyl-4-(6-(1-methyl-1H-pyrazol-4-yl)-7H-pyrrolo[2,3-d]pyrimidin-4-yl)phenyl)ethyl)-6,7-dihydro-4H-thieno[3,2-c]pyran-2-carboxamide] were less than 10 nM and 1500 to 10000 nM.
For `Cc1cc(-c2ncnc3cc[nH]c23)ccc1CNC(=O)c1cnc(C(C)(C)C)s1` [Example I-115, 2-(tert-butyl)-N-(2-methyl-4-(5H-pyrrolo[3,2-d]pyrimidin-4-yl)benzyl)thiazole-5-carboxamide], in that order: less than 10 nM and 500 to 1500 nM.
For the molecule `Cc1cc(-c2ncnc3cc[nH]c23)ccc1CNC(=O)c1cc2c(s1)CCCC2` [Example I-116, N-(2-methyl-4-(5H-pyrrolo[3,2-d]pyrimidin-4-yl)benzyl)-4,5,6,7-tetrahydrobenzo[b]thiophene-2-carboxamide], the half-maximal inhibitory concentration (IC50) was less than 10 nM in experiment [1] and 1500 to 10000 nM in experiment [2].
Taken in the same sequence, the figures for `Cc1cc(-c2ncnc3[nH]ncc23)ccc1CNC(=O)c1nc2c(s1)CCCC2` [Example I-119, 4,5,6,7-Tetrahydro-benzothiazole-2-carboxylic acid 2-methyl-4-(1H-pyrazolo[3,4-d]pyrimidin-4-yl)-benzylamide] were less than 10 nM and 1500 to 10000 nM.
Taken in the same sequence, the figures for `O=C(NCc1ccc(-c2ncnc3[nH]ccc23)cc1C(F)(F)F)c1nc2c(s1)CCCC2` [Example I-122, N-(4-(7H-pyrrolo[2,3-d]pyrimidin-4-yl)-2-(trifluoromethyl)benzyl)-4,5,6,7-tetrahydrobenzo[d]thiazole-2-carboxamide] were 10 to 99 nM and 1500 to 10000 nM.
